These results are taken from article PMC9764404 (ACS infectious diseases, 2022).

Common to all, as to format: binding
The target in experiment [1] is T1, LdtAb (Acinetobacter baumannii, UniProt A0A222A2P4). Put plainly: LC-MS of acyl-enzyme formation. Conditions: covalent; 2 μM enzyme, 200 μM antibiotic; PBS pH 7.4; 22 °C.
The target of experiment [2] is T1, LdtAb. The experiment can be described thus: LC-MS of acyl-enzyme formation. Conditions: covalent, 2 μM enzyme, 200 μM antibiotic, PBS pH 7.4, 22 °C.
The target in experiment [3] is T1, LdtAb. Put plainly: acylation by reporter substrate. Conditions: covalent; very slow acylation.

`C[C@@H](O)[C@H]1C(=O)N2C(C(=O)O)=C(S[C@@H]3CN[C@H](C(=O)Nc4cccc(C(=O)O)c4)C3)[C@H](C)[C@H]12` [ertapenem]: on LdtAb [1], the “apparent acylation rate constant k2” value amounted to 0.22 ± 0.01 h⁻¹. Further, the “% acyl-enzyme after 18 h” value at LdtAb [2] turned out to be 97%.

On to `C[C@@H](O)[C@H]1C(=O)N2C(C(=O)O)=C(SCCN=CN)C[C@H]12` [imipenem], for which the “% acyl-enzyme after 18 h” value at LdtAb [2] was 95%.

Turning to `O=C(Cc1cccs1)N[C@@H]1C(=O)N2C(C(=O)O)=C(/C=C/c3ccc([N+](=O)[O-])cc3[N+](=O)[O-])CS[C@H]12` [nitrocefin], the “acylation by reporter substrate (data not shown)” value at LdtAb [3] is listed as “acylation of LdtAb by nitrocefin took more than six hours to reach completion”.

`C[C@@H](O)[C@H]1C(=O)N2C(C(=O)O)=C(S[C@@H]3CN[C@H](C(=O)N(C)C)C3)[C@H](C)[C@H]12` [meropenem]: on LdtAb [2], the “% acyl-enzyme after 18 h” value was found to be 48%.

As for `C[C@@H](O)[C@H]1C(=O)N2C(C(=O)O)=C(S[C@@H]3CN[C@H](CNS(N)(=O)=O)C3)[C@H](C)[C@H]12` [doripenem], the “% acyl-enzyme after 18 h” value on LdtAb [2] was 21%.
